Results taken from EP4389751A1, “HETEROCYCLIC COMPOUNDS AND USES THEREOF” (Kumquat Biosciences Inc., priority 2021, dated 2024).

Experiments:
[1] = target: T1, KRAS protein (His-tagged GDP-loaded G12S 1-169) (Homo sapiens, UniProt P01116, G12S); assay: Covalent modification of KRAS protein, intact-protein LC-MS; assay type: binding; conditions: 24hrs at room temperature, KRAS protein ~2 µM
T1 construct: His-tagged GDP-loaded G12S 1-169
Protocol: Test compounds are prepared as 10 mM stock solutions in DMSO (Fisher cat#BP231-100). KRAS protein (His-tagged GDP-loaded wildtype 1-169, His-tagged GDP-loaded G12S 1-169 or His-tagged GDP-loaded G12D 1-169) is diluted to ~2 µM in appropriate buffer (e.g., a Hepes buffer at physiological conditions). For testing KRAS modification, compounds are diluted to 50X final test concentration in DMSO in 96-well storage plates. 2 µl of the diluted 50X compounds are added to appropriate wells in the PCR plate (Fisher cat#AB-0800). […] of the stock protein solution is added to each well of the 96-well PCR plate. Reactions are mixed carefully. The plate is sealed well with aluminum plate seal, and stored in drawer at room temperature for 24hrs. 5 µl of 2% formic acid (Fisher cat#A1 17-50) in MilliQ H2O is then added to each well followed by mixing with a pipette. The plate is then resealed with aluminum seal and stored until mass spectrometry analysis.
The extent of covalent modification of KRAS proteins was determined by liquid chromatography electrospray mass spectrometry analysis of the intact proteins on a Thermo Q-Exactive Plus mass spectrometer. 20 µl of sample was injected onto a bioZen 3.6 µm Intact C4 column (Phenomenex cat#00B-4767-AN) placed in a column oven set to 40°C and separated using a suitable LC gradient from -20% to ~60% solvent B. Solvent A was 0.1% formic acid and solvent B was 0.1% formic acid in acetonitrile. HESI source settings were set to 40, 5 and 1 for the sheath, auxiliary and sweep gas flow, respectively. The spray voltage was 4 kV, and the capillary temperature was 320°C. S-lens RF level was 50 and auxiliary gas heater temperature was set to 200°C. The mass spectrometry was acquired using a scan range from 650 to 1750 m/z using positive polarity at a mass resolution of 70,000, AGC target of 1e6 ions and maximum injection time of 250ms. The recorded protein mass spectrum was deconvoluted from the raw data file using Protein Deconvolution v4.0 (Thermo). The protein mass and adduct masses were exported with their peak intensities. The peak intensities for the unmodified and modified protein were used to calculate the percent covalent modification of the KRAS protein based on the following equation: %KRAS protein modification = ((KRAS-compound) / (KRAS) + (KRAS-Compound)) *100.

GP2D cells = assay: Cell proliferation assay (CellTiter-Glo), K-Ras G12D cells; assay type: cell-based; conditions: GP2D cells (K-Ras G12D); read-out: Inhibition of GP2D Cells (IC50)
How it was run: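 CellTiter-Glo luminescence, taken roughly 5 days after dosing, measured growth of G12D-mutant GP2D cells in DMEM/2 mM glutamine/10% FBS. Compound dilution series (e.g., 9 points, 3-fold) added the day after plating. Four-parameter fitting gave IC50.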

K-Ras G12S = target: T2, K-Ras G12S (Homo sapiens, UniProt P01116, G12S); assay: HTRF assay of the K-Ras / SOS1 interaction; assay type: biochemical; conditions: IC50 (against K-Ras G12D) to IC50 (against K-Ras G12S)
T2 construct: made in house; host or cells: E. coli (e.g., BL21 (DE3))
How it was run: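 Compounds (duplicates, 10 µM to 0.01 µM) were incubated ≥~10 min with Eu-labelled GST-K-Ras G12S and XL665-labelled His-hSOS1 in HEPES pH 7.4 buffer containing NaCl, DTT, BSA and Igepal. Disruption measured as HTRF emission ratio 665/620 nm, fitted to IC50.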

Row | Compound | % G12S Modification at 24 hr. [1] | IC50 (GP2D cells) [µM] | Ratio of IC50 KRAS G12D vs. IC50 KRAS G12S (K-Ras G12S)
1 | CC1(C)CN(c2nc(OC[C@@]34CCCN3C[C@H](F)C4)nc3c(F)c(-c4ccc(F)c5sc(N)nc45)c(Cl)cc23)CC2(CN(C(=O)n3cncn3)C2)O1 [Compound A212, (8-(7-(2-amino-7-fluorobenzo[d]thiazol-4-yl)-6-chloro-8-fluoro-2-(((2R,7aS)-2-fluorotetrahydro-1H-pyrrolizin-7a(5H)-yl)methoxy)quinazolin-4-yl)-6,6-dimethyl-5-oxa-2,8-diazaspiro[3.5]nonan-2-yl)(1H-1,2,4-triazol-1-yl)methanone] | +++ (+++ indicates greater than 20% labelling) | 1 to 10 | –
2 | CC1(C)CN(c2nc(OC[C@@]34CCCN3C[C@H](F)C4)nc3c(F)c(-c4ccc(F)c5sc(N)c(C#N)c45)c(Cl)cc23)CC2(CN(C(=O)n3cncn3)C2)O1 [Compound A296, 2-amino-4-(6-chloro-4-(6,6-dimethyl-2-(1H-1,2,4-triazole-1-carbonyl)-5-oxa-2,8-diazaspiro[3.5]nonan-8-yl)-8-fluoro-2-(((2R,7aS)-2-fluorotetrahydro-1H-pyrrolizin-7a(5H)-yl)methoxy)quinazolin-7-yl)-7-fluorobenzo[b]thiophene-3-carbonitrile] | +++ (+++ indicates greater than 20% labelling) | 1 to 10 | A (A: indicates that the ratio of IC50 against KrasG12D vs. IC50 against KrasG12S is 1-fold or greater)
3 | N#Cc1c(N)sc2c(F)ccc(-c3c(Cl)cc4c(N5CCN(C(=O)n6cncn6)CC(F)(F)C5)nc(OC[C@@]56CCCN5C[C@H](F)C6)nc4c3F)c12 [Compound A280, 2-amino-4-(6-chloro-4-(6,6-difluoro-4-(1H-1,2,4-triazole-1-carbonyl)-1,4-diazepan-1-yl)-8-fluoro-2-(((2R,7aS)-2-fluorotetrahydro-1H-pyrrolizin-7a(5H)-yl)methoxy)quinazolin-7-yl)-7-fluorobenzo[b]thiophene-3-carbonitrile] | +++ (+++ indicates greater than 20% labelling) | ≤ 1 | A (A: indicates that the ratio of IC50 against KrasG12D vs. IC50 against KrasG12S is 1-fold or greater)
4 | N#Cc1c(N)sc2c(F)ccc(-c3ncc4c(N5CC6CCC(C5)N6C(=O)n5ccnc5C#N)nc(OC[C@@]56CCCN5C[C@H](F)C6)nc4c3F)c12 [Compound A165, 1-(3-(7-(2-amino-3-cyano-7-fluorobenzo[b]thiophen-4-yl)-8-fluoro-2-(((2R,7aS)-2-fluorotetrahydro-1H-pyrrolizin-7a(5H)-yl)methoxy)pyrido[4,3-d]pyrimidin-4-yl)-3,8-diazabicyclo[3.2. 1]octane-8-carbonyl)-1H-imidazole-2-carbonitrile] | ++ (++ indicates between about 1%- 20% labelling) | 1 to 10 | A (A: indicates that the ratio of IC50 against KrasG12D vs. IC50 against KrasG12S is 1-fold or greater)
5 | N#Cc1nccn1C(=O)N1CCN(c2nc(OC[C@@]34CCCN3C[C@H](F)C4)nc3c(F)c(-c4ccc(F)c5sc(N)nc45)c(Cl)cc23)CC1 [Compound A272, 1-(4-(7-(2-amino-7-fluorobenzo[d]thiazol-4-yl)-6-chloro-8-fluoro-2-(((2R,7aS)-2-fluorotetrahydro-1H-pyrrolizin-7a(5H)-yl)methoxy)quinazolin-4-yl)piperazine-1-carbonyl)-1H-imidazole-2-carbonitrile] | +++ (+++ indicates greater than 20% labelling) | 1 to 10 | –
6 | N#Cc1c(N)sc2c(F)ccc(-c3c(Cl)cc4c(N5CC6OCCN(C(=O)n7cncn7)C6C5)nc(OC[C@@]56CCCN5C[C@H](F)C6)nc4c3F)c12 (stereo partly drawn) [Compound A227, 4-(4-(4-(1H-1,2,4-triazole-1-carbonyl)hexahydropyrrolo[3,4-b][1,4]oxazin-6(2H)-yl)-6-chloro-8-fluoro-2-(((2R,7aS)-2-fluorotetrahydro-1H-pyrrolizin-7a(5H)-yl)methoxy)quinazolin-7-yl)-2-amino-7-fluorobenzo[b]thiophene-3-carbonitrile] | +++ (+++ indicates greater than 20% labelling) | 1 to 10 | A (A: indicates that the ratio of IC50 against KrasG12D vs. IC50 against KrasG12S is 1-fold or greater)
7 | Nc1nc2c(-c3c(Cl)cc4c(N5CCC6(CN(C(=O)n7cncn7)CCO6)C5)nc(OC[C@@]56CCCN5C[C@H](F)C6)nc4c3F)ccc(F)c2s1 (stereo partly drawn) [Compound A202, (2-(7-(2-amino-7-fluorobenzo[d]thiazol-4-yl)-6-chloro-8-fluoro-2-(((2R,7aS)-2-fluorotetrahydro-1H-pyrrolizin-7a(5H)-yl)methoxy)quinazolm-4-yl)-6-oxa-2,9-diazaspiro[4.5]decan-9-yl)(1H-1,2,4-triazol-1-yl)methanone] | +++ (+++ indicates greater than 20% labelling) | 1 to 10 | –
8 | N#Cc1cccn1C(=O)N1CCN(c2nc(OC[C@@]34CCCN3C[C@H](F)C4)nc3c(F)c(-c4ccc(F)c5sc(N)nc45)c(Cl)cc23)CC1 [Compound A287, 1-(4-(7-(2-amino-7-fluorobenzo[d]thiazol-4-yl)-6-chloro-8-fluoro-2-(((2R,7aS)-2-fluorotetrahydro-1H-pyrrolizin-7a(5H)-yl)methoxy)quinazolin-4-yl)piperazine-1-carbonyl)-1H-pyrrole-2-carbonitrile] | ++ (++ indicates between about 1%- 20% labelling) | 1 to 10 | –
9 | Nc1nc2c(-c3c(Cl)cc4c(N5CCC6(CCN(C(=O)n7cncn7)CC6)C5)nc(OC[C@@]56CCCN5C[C@H](F)C6)nc4c3F)ccc(F)c2s1 [Compound A198, (2-(7-(2-amino-7-fluorobenzo[d]thiazol-4-yl)-6-chloro-8-fluoro-2-(((2R,7aS)-2-fluorotetrahydro-1H-pyrrolizin-7a(5H)-yl)methoxy)quinazolin-4-yl)-2,8-diazaspiro[4.5]decan-8-yl)(1H-1,2,4-triazol-1-yl)methanone] | +++ (+++ indicates greater than 20% labelling) | – | A (A: indicates that the ratio of IC50 against KrasG12D vs. IC50 against KrasG12S is 1-fold or greater)
10 | N#Cc1c(N)sc2c(F)ccc(-c3ncc4c(N5CCOC6(CN(C(=O)n7cncn7)C6)C5)nc(OC[C@@]56CCCN5C[C@H](F)C6)nc4c3F)c12 [Compound A161, 4-(4-(2-(1H-1,2,4-triazole-1-carbonyl)-5-oxa-2,8-diazaspiro[3.5]nonan-8-yl)-8-fluoro-2-(((2R,7aS)-2-fluorotetrahydro-1H-pyrrolizin-7a(5H)-yl)methoxy)pyrido[4,3-d]pyrimidin-7-yl)-2-amino-7-fluorobenzo[b]thiophene-3-carbonitrile] | +++ (+++ indicates greater than 20% labelling) | – | A (A: indicates that the ratio of IC50 against KrasG12D vs. IC50 against KrasG12S is 1-fold or greater)
11 | Nc1nc2c(-c3c(Cl)cc4c(N5CCCCC6(CN(C(=O)n7cncn7)C6)C5)nc(OC[C@@]56CCCN5C[C@H](F)C6)nc4c3F)ccc(F)c2s1 [Compound A265, (6-(7-(2-amino-7-fluorobenzo[d]thiazol-4-yl)-6-chloro-8-fluoro-2-(((2R,7aS)-2-fluorotetrahydro-1H-pyrrolizin-7a(5H)-yl)methoxy)quinazolm-4-yl)-2,6-diazaspiro[3.6]decan-2-yl)(1H-1,2,4-triazol-1-yl)methanone] | +++ (+++ indicates greater than 20% labelling) | ≤ 1 | –
